Patent US20260159521A1, “RET-LDD PROTEIN INHIBITORS” (Bristol-Myers Squibb Company, priority 2022, published 2026)

Biological target: RET kinase (Homo sapiens, UniProt P07949)
Experiment: time resolved FRET-based competition binding assay (RET HTRF)
Procedure: Cellular RET Binding Assay A time resolved FRET-based competition binding assay was used to assess compound binding to RET kinase (Thermo Fisher, PR7355A). […] Two (2) L of the reaction solution was dispensed into wells of a 1536 plate (Black Low Binding Polystyrene 1536 Plate, Corning, 3724) containing 10 nL of compounds of interest serially diluted in DMSO. The plate was incubated at room temperature for 1 h. FRET was measured using an EnVision plate reader (Excitation: 340 nm, Emission: 520 nm/495 nM). Total signal (0% inhibition) was calculated from wells containing 10 nL DMSO only.

RET kinase, sequence (P07949 29-1114): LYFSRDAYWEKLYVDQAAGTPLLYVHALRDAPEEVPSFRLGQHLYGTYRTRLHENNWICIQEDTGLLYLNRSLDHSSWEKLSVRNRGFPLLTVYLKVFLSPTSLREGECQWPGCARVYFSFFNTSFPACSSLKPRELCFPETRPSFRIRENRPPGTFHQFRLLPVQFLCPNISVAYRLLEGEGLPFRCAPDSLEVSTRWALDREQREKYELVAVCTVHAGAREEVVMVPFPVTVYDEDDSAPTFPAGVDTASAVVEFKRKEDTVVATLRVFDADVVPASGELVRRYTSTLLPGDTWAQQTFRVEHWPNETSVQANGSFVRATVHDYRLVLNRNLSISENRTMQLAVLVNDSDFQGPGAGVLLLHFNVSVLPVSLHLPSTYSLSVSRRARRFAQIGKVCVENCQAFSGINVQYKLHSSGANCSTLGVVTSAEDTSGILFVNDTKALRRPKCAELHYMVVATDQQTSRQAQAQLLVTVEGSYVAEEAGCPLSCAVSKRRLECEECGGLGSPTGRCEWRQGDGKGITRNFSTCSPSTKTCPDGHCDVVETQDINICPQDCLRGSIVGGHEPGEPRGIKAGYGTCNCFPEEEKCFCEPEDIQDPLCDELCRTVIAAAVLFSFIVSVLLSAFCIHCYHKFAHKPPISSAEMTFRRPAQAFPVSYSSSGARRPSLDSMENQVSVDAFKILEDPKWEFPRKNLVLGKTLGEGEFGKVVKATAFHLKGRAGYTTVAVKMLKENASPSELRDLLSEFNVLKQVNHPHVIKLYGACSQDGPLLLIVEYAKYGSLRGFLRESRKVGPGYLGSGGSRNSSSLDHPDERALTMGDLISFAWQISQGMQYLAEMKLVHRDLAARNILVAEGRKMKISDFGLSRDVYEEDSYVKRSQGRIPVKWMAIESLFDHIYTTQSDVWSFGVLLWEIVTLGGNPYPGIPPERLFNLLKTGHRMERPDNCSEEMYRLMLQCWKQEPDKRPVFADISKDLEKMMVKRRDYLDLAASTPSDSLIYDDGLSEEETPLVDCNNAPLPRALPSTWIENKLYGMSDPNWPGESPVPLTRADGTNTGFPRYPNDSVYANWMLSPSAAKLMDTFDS

Which IC50 does the source give for `COCc1ccc(NC(=O)c2c(-c3ccc(C=O)cc3)c(C(C)C)n3ncnc(N)c23)cc1` [Example 10, 4-amino-6-(4-formylphenyl)-7-isopropyl-N-(4-(methoxymethyl)phenyl)pyrrolo[2,1-f][1,2,4]triazine-5-carboxamide] here?
The IC50 was 37 nM.
